According to patent US20150212068A1, “Cholyl-L-Lysyl-Fluorescein Assay” (Novassay SA, priority 2012, published 2015):
“Also recorded” adds a separate entry of the source.

Legend:
[1] = Stability of CLF in whole human blood at 37° C. (Test 1), HPLC-MS/MS; format: in vitro ADME; conditions: for CLF concentration: whole human blood spiked 100 ng/ml, mean ± SEM (n = 2); for CLF remaining: whole human blood, vs To
Description: Fifty microliters (50 μl) of the working solution of CLF were added to 5 ml of human EDTA blood. The final concentration of CLF in blood was of 100 ng/ml. One aliquot of 1 ml of blood was taken (To) and the remaining solution was incubated at 37° C. in a water bath for 30 min, 120 min and 24 h. At the end of each incubation time, 1 ml of blood was taken and plasma was prepared by centrifugation of samples at 2000 g (4° C.) for 10 min. Two equal aliquots of 200 μl were prepared and stored at −70° C. until further analysis. […] Thus, a stock solution of IS at 100 μg/ml in acetonitrile was 50-fold diluted in acetonitrile in order to obtain a final concentration of 2 μg/ml. Then, 200 μl of this solution were added to each plasma sample in order to precipitate the proteins. Samples were vortexed/mixed and centrifuged 5 min at 20,000 g (4° C.). After centrifugation, the clear supernatant (around 250 μl) was transferred into 1.2 ml HPLC glass vials and sealed. Samples were placed into the refrigerated autosampler and 20 μl were injected into the HPLC-MS/MS system. Test samples were injected twice. […] The injected volume of sample was 20 μl and the “full loop” mode was applied. The temperature of the analytical column was kept at 30° C. CLF and its IS were separated on an Acclaim 120 C18 column (5 μm, 2.1×100 mm, Dionex) by elution with a linear gradient of acetonitrile in water as described in Table 6. An ion trap mass spectrometer equipped with an ESI interface was operated in the positive ionization mode. For each compound, the most abundant ion formed in MS was selected for MS/MS fragmentations. In order to increase the sensitivity and the specificity of the method, the MRM mode was selected. The most specific daughter ions formed in MS/MS were used for quantification.

[2] = Stability of CLF in human plasma at room temperature and 4° C. after 30 min pre-incubation in whole blood at 37° C. (Test 2), HPLC-MS/MS; format: in vitro ADME; conditions: for CLF concentration: plasma after 30 min blood pre-incubation at 37° C., mean ± SEM (n = 2); for percentage of compound remaining (by comparing with content at To), lowest over incubation / CLF remaining: plasma after blood pre-incubation; for percentage of compound remaining (by comparing with content at To), lowest over incubation: up to 24 h; for CLF remaining: vs To
Description: Eighty microliters (80 μl) of the working solution of CLF were added to 8 ml of human EDTA blood. The final concentration of CLF in blood was of 100 ng/ml. Then, sample was incubated at 37° C. in water bath for 30 min and plasma was prepared as described previously. Plasma was then divided into two equal fractions of 2 ml each. One fraction was incubated at room temperature and the second one was incubated at 4° C. in a cold room. Two aliquots of 200 μl were taken from both fractions just before incubation and after 30 min, 120 min and 24 h of incubation. Samples were stored at −70° C. until further analysis. […] Thus, a stock solution of IS at 100 μg/ml in acetonitrile was 50-fold diluted in acetonitrile in order to obtain a final concentration of 2 μg/ml. Then, 200 μl of this solution were added to each plasma sample in order to precipitate the proteins. Samples were vortexed/mixed and centrifuged 5 min at 20,000 g (4° C.). After centrifugation, the clear supernatant (around 250 μl) was transferred into 1.2 ml HPLC glass vials and sealed. Samples were placed into the refrigerated autosampler and 20 μl were injected into the HPLC-MS/MS system. Test samples were injected twice. […] The injected volume of sample was 20 μl and the “full loop” mode was applied. The temperature of the analytical column was kept at 30° C. CLF and its IS were separated on an Acclaim 120 C18 column (5 μm, 2.1×100 mm, Dionex) by elution with a linear gradient of acetonitrile in water as described in Table 6. An ion trap mass spectrometer equipped with an ESI interface was operated in the positive ionization mode. For each compound, the most abundant ion formed in MS was selected for MS/MS fragmentations. In order to increase the sensitivity and the specificity of the method, the MRM mode was selected. The most specific daughter ions formed in MS/MS were used for quantification.

[3] = room temperature (25 ± 2° C.), 0.0 hours
[4] = room temperature (25 ± 2° C.), 0.5 hours
[5] = room temperature (25 ± 2° C.), 2.0 hours
[6] = room temperature (25 ± 2° C.), 24.0 hours

## CC(CCC(=O)NC(CCCCNC(=S)Nc1ccc(-c2c3ccc(=O)cc-3oc3cc(O)ccc23)c(C(=O)O)c1)C(=O)O)C1CCC2C3C(O)CC4CC(O)CCC4(C)C3CC(O)C12C [CLF, Cholyl-L-Lysyl-Fluorescein]
[1]; 37° C., 24 hours, 100 ng/ml
  CLF stability in whole human blood: stable during 24 h; also recorded: stable over 24 hours
[1]; whole blood spiked with 100 ng/ml, 37° C., 0-24 h
  plasmatic concentrations measured: 165.1 to 180.3 ng/mL
[1]; whole blood spiked with CLF, plasma prepared by centrifugation
  repartition of CLF in blood: mainly distributed in the plasmatic fraction; also recorded: mainly distributed in the plasma fraction
[1]; whole blood, 37° C., up to 24 h
  percentage of compound remaining (by comparing with content at To), lowest over incubation: at least 104.1%
[1]; 37° C., 0.0 hours, plasmatic concentration
  CLF concentration: 165.1 ± 2.6 ng/mL
[1]; 37° C., 0.5 hours
  CLF concentration: 171.9 ± 6.7 ng/mL
  CLF remaining: 104.1%
[1]; 37° C., 2.0 hours
  CLF concentration: 180.3 ± 7.4 ng/mL
  CLF remaining: 109.2%
[1]; 37° C., 24.0 hours
  CLF concentration: 173.8 ± 1.7 ng/mL
  CLF remaining: 105.3%
[1]; 37° C., 0.0 hours
  CLF remaining: 100.0%
[2]; blood spiked with 100 ng/ml, plasma at 4° C. and room temperature, 0-24 h
  plasmatic concentrations measured: 147.7 to 164.9 ng/mL
[2]; 4° C., 0.0 hours
  CLF concentration: 163.3 ± 3.6 ng/mL
  CLF remaining: 100.0%
[2]; 4° C., 0.5 hours
  CLF concentration: 155.4 ± 7.0 ng/mL
  CLF remaining: 95.2%
[2]; 4° C., 2.0 hours
  CLF concentration: 164.9 ± 4.2 ng/mL
  CLF remaining: 101.0%
[2]; 4° C., 24.0 hours
  CLF concentration: 152.7 ± 4.2 ng/mL
  CLF remaining: 93.5%
[2]; [3]
  CLF concentration: 163.3 ± 3.6 ng/mL
  CLF remaining: 100.0%
[2]; [4]
  CLF concentration: 159.3 ± 0.6 ng/mL
  CLF remaining: 97.6%
[2]; [5]
  CLF concentration: 151.1 ± 0.8 ng/mL
  CLF remaining: 92.5%
[2]; [6]
  CLF concentration: 147.7 ± 3.7 ng/mL
  CLF remaining: 90.5%
[2]; 4° C.
  percentage of compound remaining (by comparing with content at To), lowest over incubation: ≥ 93.5%
[2]; room temperature
  percentage of compound remaining (by comparing with content at To), lowest over incubation: at least 90.5%
[2]; room temperature and 4° C., up to 24 hours
  CLF stability in plasma after pretreatment of whole blood at 37° C.: stable during 24 h; also recorded: stable under these conditions
